{
  "source": "paper PMC8944596",
  "about": "“Determination of the Relationships between the Chemical Structure and Antimicrobial Activity of a GAPDH-Related Fish Antimicrobial Peptide and Analogs Thereof” (Antibiotics, 2022)",
  "key": {"[1]": {"system": "P. aeruginosa ATCC 27853", "set-up": "method as in PMID 1605597", "settings": "cited from earlier work"}, "[2]": {"system": "E. coli ATCC 25922", "set-up": "method as in PMID 1605597", "settings": "cited from earlier work"}, "[3]": {"system": "Z. rouxii LL12_088", "experiment": "Antifungal microdilution MIC/MFC", "format": "cell-based, Zygosaccharomyces rouxii", "settings": "99.9% inhibition of yeast growth by CFU counts on PDA", "method": "Mucor racemosus LMA-722, Paecilomyces sp. 5332-9a, and Aspergillus niger 3071-13 were used as filamentous fungal strains. Saccharomyces boulardii 27169, Rhodotorula mucilaginosa 27173, and Zygosaccharomyces rouxii LL12_088 were used as yeast strains. Fungal strains were sub-cultured on potato dextrose agar (PDA) (BD, Sparks, USA) plates, at 25 °C, at least two times, before being used for antimicrobial and membrane permeabilization testing.\nMICs were also tested using microdilutions in 96-well plates for fungal strains. The protocol used was roughly the same as that described for bacterial strains. RPMI 1640 (Sigma-Aldrich, St. Louis, MO, USA), buffered with MOPS (Fisher Scientific, Fair Lawn, NJ, USA) (0.164 M, pH = 7), was used instead of MHB, according to CLSI guidelines. Potato dextrose broth was used for microplates inoculated with Z. rouxii yeast. For filamentous fungi, conidia were harvested from 7-day cultures and diluted in buffered RPMI 1640 to obtain a suspension containing 5 × 10^4 CFU/mL, as assessed with a COUNTESS II FL automatic cell counter (Thermo Fisher Scientific, Waltham, MA, USA). […] Plates were then incubated for 24 (yeasts) or 48 (filamentous fungi) h at 25 °C. […] Natamycin (Sigma-Aldrich, St. Louis, MO, USA) was used as positive control for all fungal strains. […]"}, "[4]": {"system": "E. coli ATCC 25922", "experiment": "Broth microdilution MIC/MBC", "format": "cell-based", "settings": "Escherichia coli, ATCC25922, MHB, 5 × 10^5 CFU/mL, 16 h at 37 °C, no visible growth, three independent repetitions, two technical replicates", "method": "Escherichia coli ATCC 25922, Escherichia coli ATCC 11229, Pseudomonas aeruginosa ATCC 27853, Aeromonas salmonicida subsp. salmonicida 69 R3, Aeromonas salmonicida subsp. salmonicida 69 R5 [53], Micrococcus luteus LMA-272, and Listeria ivanovii ATCC 19119 were used for antibacterial activity testing. Details on these strains used in this study are included in Table 6. All these strains were cultivated in tryptic soy broth (TSB) (BD, Sparks, NV, USA), except for L. ivanovii, which was grown in brain heart infusion (BHI) broth (BD, Sparks, USA). All bacterial strains were grown at 37 °C, except for the two A. salmonicida strains, which were incubated at 20 °C. Strains were sub-cultured at least twice, before being used for antimicrobial and membrane permeabilization assays.\nMICs for bacterial strains were determined using a broth microdilution protocol. Two-fold dilutions of peptide solutions ([…]) were made in Mueller Hinton Broth (MHB) (Oxoid, Basingstoke, UK) in 96-well polypropylene clear round bottom microplates (Corning Inc., Corning, NY, USA). […] Final volumes in the wells were of 200 μL. […] After reading of the MICs, 20 μL of the wells that were showing no visible bacterial growth were inoculated on tryptic soy agar (TSA) (or BHI agar for Listeria ivanovii) plates, which were then incubated at the appropriate temperature for 24 h. […]"}},
  "note": "Ends that are not written are not given here.",
  "data": [
    {"molecule": "magainin-2", "values": [
      {"measurement": "MIC, P. aeruginosa ATCC 27853", "setting": "[1]", "value": 50, "unit": "µg/mL"},
      {"measurement": "MIC, E. coli ATCC 25922", "setting": "[2]", "value": 50, "unit": "µg/mL"}
    ]},
    {"molecule": "HGKKVEIVAIND [Analog 4]", "values": [
      {"measurement": "MFC, Z. rouxii LL12_088", "setting": "[3]", "value": "n.f.a. (No fungicidal activity)"}
    ]},
    {"molecule": "O=C(N[C@H](CO)[C@H](O)c1ccc([N+](=O)[O-])cc1)C(Cl)Cl", "note": "[Chloramphenicol]", "values": [
      {"measurement": "MIC", "setting": "[4]", "value": 4, "unit": "µg/mL"}
    ]}
  ]
}
